Like-named read-outs stand apart in the source and are kept apart here.
Legend:
[1] = Photostability (absorption spectra upon irradiation); format: physicochemical; settings: 450 nm, 0 to 10 min (13.2 J cm^−2), air-saturated acetonitrile
Method: The sample was prepared in an air-saturated acetonitrile solution. Using a Atlas Photonics LUMOS BIO irradiator, the sample was constantly irradiated at 450 nm in time intervals from 0 to 10 min (13.2 J cm^−2). The absorption spectra from 350 to 700 nm was monitored with a SpectraMax M2 Microplate Reader (Molecular Devices) at each time interval. As positive and negative controls, respectively, [Ru(2,2′-bipyridine)3]Cl2 and Protoporphyrin IX were used.

[2] = tested on: mouse colon carcinoma (CT-26) cells
Method: (§1) A total of 4 × 10^3 cells were seeded on 96-well plates and allowed to adhere overnight. The cells were treated with increasing concentrations of the sample diluted in cell media achieving a total volume of 200 μL. The cells were incubated with the sample for 8 h and, after this time, the medium refreshed. To study the phototoxic effect of the sample, the cells were exposed to 480 nm (spectral half-width: 20 nm, 10 min, 5.2 mW cm^−2, 3.1 J cm^−2) or 540 nm (spectral half-width: 30 nm, 40 min, 4.0 mW cm^−2, 9.5 J cm^−2) light using an Atlas Photonics LUMOS BIO irradiator. To study the dark cytotoxicity of the sample, the cells were not irradiated and the medium exchanged. The cells were grown for an additional 40 h at 37 °C. After this time, the medium was replaced with fresh medium containing resazurin with a final concentration of 0.2 mg mL^−1. The cells were incubated for 4 h and the amount of the fluorescent product resorufin determined (λex = 540 nm, λem = 590 nm) with a SpectraMax M2 Microplate Reader (Molecular Devices). The obtained data was analyzed with the GraphPad Prism software.

[3] = tested on: human glioblastoma astrocytoma (U373) cells; experiment: (Photo-)cytotoxicity on 2D cell monolayers, U373; settings: for PI (480 nm): U373, dark vs 480 nm; for PI (540 nm): U373, dark vs 540 nm; for IC50: 1-3 as chloride salts;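 on all read-outs here: Resazurin-to-resorufin fluorescence viability readout, 8 h compound exposure then medium change, light dose 3.1 J cm^−2 at 480 nm or 9.5 J cm^−2 at 540 nm, analysed 40 h later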
Method: as §1

[4] = tested on: mouse colon carcinoma (CT-26) cells; experiment: (Photo-)cytotoxicity on 2D cell monolayers, CT-26; settings: for PI (480 nm): CT-26, dark vs 480 nm; for PI (540 nm): CT-26, dark vs 540 nm; for IC50: 1-3 as chloride salts
Method: as §1

HeLa MCTS = experiment: (Photo-)cytotoxicity on 3D MCTS (ATP concentration); format: cell-based, human; settings: for IC50: 1-3 as chloride salts; for PI (2P irradiation): dark vs 800 nm; for PI (1P irradiation): dark vs 500 nm
Method: The cytotoxicity of the compounds in 3D MCTS was assessed by measurement of the ATP concentration. MCTS were treated with increasing concentrations of the compound (2% DMSO, v%) by replacing 50% of the media with drug supplemented media and incubation for 12 h. After this time, the MCTS were divided in three identical groups. The first group was strictly kept in the dark. The second group was exposed to a 1-Photon irradiation (500 nm, 16.7 min, 10.0 mW cm^−2, and 10 J cm^−2) using a LED light source and the third group was exposed to a 2-Photon irradiation (800 nm, 10 J cm^−2 with a section interval of 5 μm) using a LSM 880 (Carl Zeiss, Germany) laser scanning confocal microscope equipped with a Coherent Chameleon 2-Photon laser. After the irradiation, all groups were incubated additional 48 h. The ATP concertation was measured using a CellTiter-Glo 3D Cell Viability kit (Promega) by measuring the generated chemiluminescence with an infinite M200 PRO (Tecan) plate reader.

[5] = read-out: IC50 480 nm (10 min, 3.1 J cm-2), U373, 480 nm
[6] = read-out: IC50 dark, U373, dark
[7] = read-out: IC50 540 nm (40 min, 9.5 J cm-2), CT-26, 540 nm
[8] = read-out: IC50 dark, CT-26, dark
[9] = 2P 800 nm, section interval 5 μm, read-out: IC50 2P irradiation (800 nm, 10 J cm-2)
[10] = 1P 500 nm, read-out: IC50 1P irradiation (500 nm, 10 J cm-2)

**Q.** For `C(=C\c1ccnc(-c2cc(/C=C/c3ccccc3)ccn2)c1)/c1ccccc1.C(=C\c1ccnc(-c2cc(/C=C/c3ccccc3)ccn2)c1)/c1ccccc1.C(=C\c1ccnc(-c2cc(/C=C/c3ccccc3)ccn2)c1)/c1ccccc1.F[P-](F)(F)(F)(F)F.F[P-](F)(F)(F)(F)F.[Ru+2]` [compound 1], which “photostability (change of absorption spectra upon irradiation)” value [1] is on record?
**A.** no significant differences in the absorption spectra

**Q.** And the IC50 [2]?
**A.** 20.3 µM

**Q.** What about the “PI (480 nm)” value [3] of the same compound?
**A.** > 1.9

**Q.** What about the “PI (540 nm)” value [3] of the same compound?
**A.** > 1.2

**Q.** And the IC50 [3, 5]?
**A.** 51.7 µM

**Q.** And the IC50 [3, 6]?
**A.** > 100 µM

**Q.** What about the “PI (480 nm)” value [4] of the same compound?
**A.** > 4.9

**Q.** And the “PI (540 nm)” value [4]?
**A.** > 3.0

**Q.** What about the IC50 [4, 7] of the same compound?
**A.** 33.4 µM

**Q.** What about the IC50 [4, 8] of the same compound?
**A.** > 100 µM

**Q.** For `COc1ccc(/C=C/c2ccnc(-c3cc(/C=C/c4ccc(OC)cc4)ccn3)c2)cc1.COc1ccc(/C=C/c2ccnc(-c3cc(/C=C/c4ccc(OC)cc4)ccn3)c2)cc1.COc1ccc(/C=C/c2ccnc(-c3cc(/C=C/c4ccc(OC)cc4)ccn3)c2)cc1.F[P-](F)(F)(F)(F)F.F[P-](F)(F)(F)(F)F.[Ru+2]` [compound 3, [Ru((E,E′)-4,4′-Bis[p-methoxystyryl]-2,2′-bipyridine)3][PF6]2], which “photostability (change of absorption spectra upon irradiation)” value [1] is on record?
**A.** no significant differences in the absorption spectra

**Q.** What about the IC50 (HeLa MCTS; [9]) of the same compound?
**A.** 87.3 ± 6.8 µM

**Q.** And the “PI (2P irradiation)” value (HeLa MCTS)?
**A.** > 1.1

**Q.** What about the IC50 [2] of the same compound?
**A.** 19.3 µM

**Q.** What about the “PI (480 nm)” value [3] of the same compound?
**A.** > 2.4

**Q.** What about the “PI (540 nm)” value [3] of the same compound?
**A.** > 1.9

**Q.** What about the IC50 [3, 5] of the same compound?
**A.** 41 µM

**Q.** What about the IC50 [3, 6] of the same compound?
**A.** > 100 µM

**Q.** And the “PI (480 nm)” value [4]?
**A.** > 5.2

**Q.** What about the “PI (540 nm)” value [4] of the same compound?
**A.** > 4.3

**Q.** What about the IC50 [4, 7] of the same compound?
**A.** 23 µM

**Q.** And the IC50 [4, 8]?
**A.** > 100 µM

**Q.** Which results are given for `CN(C)c1ccc(/C=C/c2ccnc(-c3cc(/C=C/c4ccc(N(C)C)cc4)ccn3)c2)cc1.CN(C)c1ccc(/C=C/c2ccnc(-c3cc(/C=C/c4ccc(N(C)C)cc4)ccn3)c2)cc1.F[P-](F)(F)(F)(F)F.F[P-](F)(F)(F)(F)F.[Ru+2].c1ccc(-c2ccccn2)nc1` [compound 4, [Ru(2,2′-bipyridine)((E,E′)-4,4′-Bis[p-(N,N-dimethylamino)styryl]-2,2′-bipyridine)2][PF6]2]?
**A.** photostability (change of absorption spectra upon irradiation) [1]: small changes in the absorption spectra; IC50 (HeLa MCTS; [10]): 78.3 ± 5.1 µM; IC50 (HeLa MCTS; [9]): 63 ± 4.2 µM; PI (1P irradiation) (HeLa MCTS): > 1.3; PI (2P irradiation) (HeLa MCTS): > 1.6; IC50 [2]: 7.3 µM; PI (480 nm) [3]: > 7.0; PI (540 nm) [3]: > 5.3; IC50 [3, 5]: 14.3 µM; IC50 [3, 6]: > 100 µM; PI (480 nm) [4]: > 13.7; PI (540 nm) [4]: > 10.4; IC50 [4, 7]: 9.6 µM; IC50 [4, 8]: > 100 µM

**Q.** Which “photostability (change of absorption spectra upon irradiation)” value [1] does the source give for `COc1ccc(/C=C/c2ccnc(-c3cc(/C=C/c4ccc(OC)cc4)ccn3)c2)cc1.COc1ccc(/C=C/c2ccnc(-c3cc(/C=C/c4ccc(OC)cc4)ccn3)c2)cc1.F[P-](F)(F)(F)(F)F.F[P-](F)(F)(F)(F)F.[Ru+2].c1ccc(-c2ccccn2)nc1` [compound 5, [Ru(2,2′-bipyridine)((E,E′)-4,4′-Bis[p-methoxystyryl]-2,2′-bipyridine)2][PF6]2] here?
**A.** no significant differences in the absorption spectra

**Q.** And the IC50 (HeLa MCTS; [10])?
**A.** 19.3 ± 2.7 µM

**Q.** What about the IC50 (HeLa MCTS; [9]) of the same compound?
**A.** 13.4 ± 3.9 µM

**Q.** And the “PI (1P irradiation)” value (HeLa MCTS)?
**A.** > 5.2

**Q.** And the “PI (2P irradiation)” value (HeLa MCTS)?
**A.** > 7.5

**Q.** What about the IC50 [2] of the same compound?
**A.** 5.1 µM

**Q.** What about the “PI (480 nm)” value [3] of the same compound?
**A.** > 6.5

**Q.** And the “PI (540 nm)” value [3]?
**A.** > 5.6

**Q.** And the IC50 [3, 5]?
**A.** 15.3 µM

**Q.** What about the IC50 [3, 6] of the same compound?
**A.** > 100 µM

**Q.** What about the “PI (480 nm)” value [4] of the same compound?
**A.** > 19.6

**Q.** And the “PI (540 nm)” value [4]?
**A.** > 16.1

**Q.** What about the IC50 [4, 7] of the same compound?
**A.** 6.2 µM

**Q.** And the IC50 [4, 8]?
**A.** > 100 µM

**Q.** With `CN(C)c1ccc(/C=C/c2ccnc(-c3cc(/C=C/c4ccc(N(C)C)cc4)ccn3)c2)cc1.F[P-](F)(F)(F)(F)F.F[P-](F)(F)(F)(F)F.[Ru+2].c1ccc(-c2ccccn2)nc1.c1ccc(-c2ccccn2)nc1` [compound 6, [Ru(2,2′-bipyridine)2((E,E′)-4,4′-Bis[p-(N,N-dimethylamino)styryl]-2,2′-bipyridine)][PF6]2] as the compound, how does the “photostability (change of absorption spectra upon irradiation)” value [1] read?
**A.** small changes in the absorption spectra

**Q.** What about the IC50 (HeLa MCTS; [10]) of the same compound?
**A.** 33.8 ± 3.4 µM

**Q.** What about the IC50 (HeLa MCTS; [9]) of the same compound?
**A.** 26.5 ± 2.9 µM

**Q.** And the “PI (1P irradiation)” value (HeLa MCTS)?
**A.** > 8.9

**Q.** And the “PI (2P irradiation)” value (HeLa MCTS)?
**A.** > 11.3

**Q.** What about the IC50 (HeLa MCTS; dark, read-out: IC50 dark) of the same compound?
**A.** > 300 µM

**Q.** What about the IC50 [2] of the same compound?
**A.** 2.4 µM

**Q.** What about the “PI (480 nm)” value [3] of the same compound?
**A.** > 12.0

**Q.** What about the “PI (540 nm)” value [3] of the same compound?
**A.** > 9.3

**Q.** What about the IC50 [3, 5] of the same compound?
**A.** 8.3 µM

**Q.** What about the IC50 [3, 6] of the same compound?
**A.** > 100 µM

**Q.** What about the “PI (480 nm)” value [4] of the same compound?
**A.** > 41.7

**Q.** And the “PI (540 nm)” value [4]?
**A.** > 32.3

**Q.** What about the IC50 [4, 7] of the same compound?
**A.** 3.1 µM

**Q.** And the IC50 [4, 8]?
**A.** > 100 µM
